Experimental findings from patent publication US20170275270A1, “BENZYL SUBSTITUTED INDAZOLES” (Bayer Pharma Aktiengesellschaft, priority 2014, published 2017) are described below.

Values joined by “and” are separate entries in the source; they are usually repeats but may differ in a detail not shown here. Equal entries are not always repeated. Structures can show the parent of a compound that is named as a salt.

T1 sequence (O43683 704-1085): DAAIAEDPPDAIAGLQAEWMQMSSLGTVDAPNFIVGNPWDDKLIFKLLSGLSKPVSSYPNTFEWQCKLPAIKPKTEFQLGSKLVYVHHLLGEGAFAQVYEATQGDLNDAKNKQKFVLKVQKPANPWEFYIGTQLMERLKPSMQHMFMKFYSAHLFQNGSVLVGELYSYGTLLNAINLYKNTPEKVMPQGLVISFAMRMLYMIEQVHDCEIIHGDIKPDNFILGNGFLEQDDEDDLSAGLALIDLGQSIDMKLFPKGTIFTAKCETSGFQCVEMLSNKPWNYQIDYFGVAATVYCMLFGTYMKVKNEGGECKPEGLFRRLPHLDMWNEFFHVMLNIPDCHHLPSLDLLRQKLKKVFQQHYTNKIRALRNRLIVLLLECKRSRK

One experiment has as its target T1, catalytic domain of human Bub1 (amino acids 704-1085) (Homo sapiens, UniProt O43683).
T1 construct: catalytic domain of human Bub1 (amino acids 704-1085); His6 (N); made in house; host or cells: Hi5 insect cells
In words: Bub1 kinase assay (TR-FRET). Conditions: 10 μM ATP, read-out: Biological Assay 1: Bub1 kinase assay median IC50. Format: biochemical. As to the method:
To this end, 100-fold concentrated compound solutions (in DMSO) were previously prepared by serial dilution (1:3.4) of 2 mM stocks in a clear low volume 384-well source microtiter plate (Greiner Bio-One, Frickenhausen, Germany), from which 50 nL of compounds were transferred into a black low volume test microtiter plate from the same supplier. […] The resulting mixture (5 μL final volume) was incubated at 22° C. during 60 min., and the reaction was stopped by the addition of 5 μL of an aqueous EDTA-solution (50 mM EDTA, in 100 mM HEPES pH 7.5 and 0.2% (w/v) bovine serum albumin) which also contained the TR-FRET detection reagents (0.2 μM streptavidin-XL665 [Cisbio Bioassays, Codolet, France] and 1 nM anti-phosho-Serine antibody [Merck Millipore, cat. #35-001] and 0.4 nM LANCE EU-W1024 labeled anti-mouse IgG antibody [Perkin-Elmer, product no. AD0077, alternatively a Terbium-cryptate-labeled anti-mouse IgG antibody from Cisbio Bioassays can be used]). The stopped reaction mixture was further incubated 1 h at 22° C. in order to allow the formation of complexes between peptides and detection reagents. Subsequently, the amount of product was evaluated by measurement of the resonance energy transfer from the Eu-chelate-antibody complex recognizing the Phosphoserine residue to the streptavidin-XL665 bound to the biotin moiety of the peptide. […] IC50 values were calculated by fitting the normalized inhibition data to a 4-parameter logistic equation (Minimum, Maximum, IC50, Hill; Y=Max+(Min−Max)/(1+(X/IC50) Hill)).
Background: Time-resolved FRET reads energy transfer from a long-lived donor to a nearby acceptor.
Broadly, the IC50 is the concentration needed to halve the response being measured. Take `COCCOc1cc(F)c(Cn2nc(-c3nc(C)cc(Nc4ccncc4OC)n3)c3ccccc32)c(F)c1` [Example 2-12-77, 2-{1-[2,6-difluoro-4-(2-methoxyethoxy)benzyl]-1H-indazol-3-yl}-N-(3-methoxypyridin-4-yl)-6-methylpyrimidin-4-amine]: the IC50 was 6.7 nM.

Still in this experiment, the particulars now being: Biological Assay 1: Bub1 kinase assay median IC50, 10 μM ATP.
Consider `CCOc1cc(F)c(Cn2nc(-c3nc(Nc4ccnc(C)n4)cc(-c4nccs4)n3)c3ccccc32)c(F)c1` [Example 2-12-96, 2-[1-(4-ethoxy-2,6-difluorobenzyl)-1H-indazol-3-yl]-N-(2-methylpyrimidin-4-yl)-6-(1,3-thiazol-2-yl)pyrimidin-4-amine], for which the IC50 is > 20000 nM and 9200 nM.

As to `CCOc1cc(F)c(Cn2nc(-c3nc4c(c(Nc5ccncc5C)n3)COC4)c3ccccc32)c(F)c1` [Example 2-19-18, 2-[1-(4-ethoxy-2,6-difluorobenzyl)-1H-indazol-3-yl]-N-(3-methylpyridin-4-yl)-5,7-dihydrofuro[3,4-d]pyrimidin-4-amine], the IC50 turned out to be 84 nM. The same measure, in the same setting: to `COCCOc1cc(F)c(Cn2nc(-c3nc4c(c(Nc5ccncc5OC)n3)COCC4)c3ccccc32)c(F)c1` [Example 2-12-99, 2-{1-[2,6-difluoro-4-(2-methoxyethoxy)benzyl]-1H-indazol-3-yl}-N-(3-methoxypyridin-4-yl)-7,8-dihydro-5H-pyrano[4,3-d]pyrimidin-4-amin] belongs 26 nM. The same measure, in the same setting: then `COCCOc1cc(F)c(Cn2nc(-c3nc4c(c(Nc5cc(C)ncc5C)n3)CNC4)c3ccccc32)c(F)c1` [Example 2-9-26, 2-{1-[2,6-difluoro-4-(2-methoxy-ethoxy)benzyl]-1H-indazol-3-yl}-N-(2,5-dimethylpyridin-4-yl)-6,7-dihydro-5H-pyrrolo[3,4-d]pyr-imidin-4-amine], with 180 nM.

`CCOc1cc(F)c(Cn2nc(-c3nc(Nc4ccnc(C)n4)cc(-c4sc(C)nc4C)n3)c3ccccc32)c(F)c1` [Example 2-12-84, 6-(2,4-dimethyl-1,3-thiazol-5-yl)-2-[1-(4-ethoxy-2,6-difluorobenzyl)-1H-indazol-3-yl]-N-(2-methylpyrimidin-4-yl)pyrimidin-4-amine] yielded an IC50 of 2300 nM. Same read-out and setting: then `CCOc1cc(F)c(Cn2nc(-c3ncc(CS(C)(=O)=O)c(Nc4ccncc4)n3)c3ccccc32)c(F)c1` [Example 2-3-3, 2-[1-(4-ethoxy-2,6-difluorobenzyl)-1H-indazol-3-yl]-5-[(methylsulfonyl)methyl]-N-(pyridin-4-yl)pyrimidin-4-amine], with 8.9 nM. Same read-out and setting: to `OCCOc1cc(F)c(Cn2nc(-c3nc4c(c(Nc5ccncn5)n3)CN(CC(F)(F)F)C4)c3ccccc32)c(F)c1` [Example 2-6-40, 2-[3,5-difluoro-4-({3-[4-(pyrimidin-4-ylamino)-6-(2,2,2-trifluoroethyl)-6,7-dihydro-5H-pyrrolo[3,4-d]pyrimidin-2-yl]-1H-indazol-1-yl}methyl)phenoxy]ethanol] belongs 9.3 nM; to `CCOc1cc(F)c(Cn2nc(-c3nc(CN4CCOCC4)cc(Nc4ccnc(O)c4)n3)c3ccccc32)c(F)c1` [Example 2-12-46, 4-({2-[1-(4-ethoxy-2,6-difluorobenzyl)-1H-indazol-3-yl]-6-(morpholin-4-ylmethyl)pyrimidin-4-yl}amino)pyridin-2-ol], 1100 nM; to `COCCOc1cc(F)c(Cn2nc(-c3ncc(C4CCN(CCC(F)(F)F)CC4)c(Nc4ccncc4Cl)n3)c3ccccc32)c(F)c1` [Example 2-20-9, N-(3-chloropyridin-4-yl)-2-{1-[2,6-difluoro-4-(2-methoxyethoxy)benzyl]-1H-indazol-3-yl}-5-[1-(3,3,3-trifluoropropyl)piperidin-4-yl]pyrimidin-4-amine], 220 nM. With `COCCOc1cc(F)c(Cn2nc(-c3nc4c(c(Nc5ccnc(C)n5)n3)COCC4)c3ccccc32)c(F)c1` [Example 2-12-100, 2-{1-[2,6-difluoro-4-(2-methoxyethoxy)benzyl]-1H-indazol-3-yl}-N-(2-methylpyrimidin-4-yl)-7,8-dihydro-5H-pyrano[4,3-d]pyrimidin-4-amine], half-maximal inhibition (IC50) was put at 99 nM. `COCCOc1cc(F)c(Cn2nc(-c3ncc(C4CCN(CC(F)(F)F)CC4)c(Nc4ccnc(C)n4)n3)c3ccccc32)c(F)c1` [Example 2-20-10, 2-{1-[2,6-difluoro-4-(2-methoxyethoxy)benzyl]-1H-indazol-3-yl}-N-(2-methylpyrimidin-4-yl)-5-[1-(2,2,2-trifluoroethyl)piperidin-4-yl]pyrimidin-4-amine] displayed an IC50 of 290 nM. In turn, `CCOc1cc(F)c(Cn2nc(-c3nc4c(c(Nc5ccncc5)n3)CCCC4)c3ccccc32)c(F)c1` [Example 2-19-21, 2-[1-(4-ethoxy-2,6-difluorobenzyl)-1H-indazol-3-yl]-N-(pyridin-4-yl)-5,6,7,8-tetrahydroquinazolin-4-amine] registered an IC50 of 12 nM.

With `COc1ccc(Cn2nc(-c3nc(C)c(F)c(Nc4ccncc4)n3)c3ccccc32)cc1` [Example 2-12-24, 5-fluoro-2-[1-(4-methoxybenzyl)-1H-indazol-3-yl]-6-methyl-N-(pyridin-4-yl)-pyrimidin-4-amine], inhibition was half-maximal at 55 nM (IC50). The same measure, in the same setting: then `CCOc1cc(F)c(Cn2nc(-c3ncc(CC4CNC4)c(Nc4cc(C)ncc4C)n3)c3ccccc32)c(F)c1` [Example 2-9-19, 5-(azetidin-3-ylmethyl)-N-(2,5-dimethylpyridin-4-yl)-2-[1-(4-ethoxy-2,6-difluorobenzyl)-1H-indazol-3-yl]pyrimidin-4-amine, salt with hydrochloric acid], with 44 nM; and `CCOc1cc(F)c(Cn2nc(-c3nc(C)c(CC)c(Nc4ccncc4)n3)c3ccccc32)c(F)c1` [Example 2-12-8, 2-[1-(4-ethoxy-2,6-difluorobenzyl)-1H-indazol-3-yl]-5-ethyl-6-methyl-N-(pyridin-4-yl)pyrimidin-4-amine], with 16 nM.

Regarding `COCCOc1cc(F)c(Cn2nc(-c3nc4c(c(Nc5ccnc(C)n5)n3)CCC4)c3ccccc32)c(F)c1` [Example 2-12-55, 2-{1-[2,6-difluoro-4-(2-methoxyethoxy)benzyl]-1H-indazol-3-yl}-N-(2-methylpyrimidin-4-yl)-6,7-dihydro-5H-cyclopenta[d]pyrimidin-4-amine], the IC50 was determined as 44 nM. The same measure, in the same setting: then `COCCOc1cc(F)c(Cn2nc(-c3ncc(C4CCN(CC(F)F)CC4)c(Nc4ccnc(C)n4)n3)c3ccccc32)c(F)c1` [Example 2-20-11, 5-[1-(2,2-difluoroethyl)piperidin-4-yl]-2-{1-[2,6-difluoro-4-(2-methoxyethoxy)benzyl]-1H-indazol-3-yl}-N-(2-methylpyrimidin-4-yl)pyrimidin-4-amine], with 63 nM; and `COCCOc1cc(F)c(Cn2nc(-c3nc(CN4CCOCC4)cc(Nc4ccncc4Cl)n3)c3ccccc32)c(F)c1` [Example 2-12-40, N-(3-chloropyridin-4-yl)-2-{1-[2,6-difluoro-4-(2-methoxyethoxy)benzyl]-1H-indazol-3-yl}-6-(morpholin-4-ylmethyl)pyrimidin-4-amine], with 10 nM.

The molecule `CS(=O)(=O)Cc1cnc(-c2nn(Cc3c(F)cc(OCCO)cc3F)c3ccccc23)nc1N(CCO)c1ccncc1` [Example 2-4-4, 2-[(2-{1-[2,6-difluoro-4-(2-hydroxyethoxy)benzyl]-1H-indazol-3-yl}-5-[(methylsulfonyl)methyl]pyrimidin-4-yl)(pyridin-4-yl)amino]ethanol] had an IC50 of 480 nM.

As for `COCCOc1cc(F)c(Cn2nc(-c3nc4c(c(Nc5ccnc(C)n5)n3)CNC4)c3ccccc32)c(F)c1` [Example 2-9-25, 2-{1-[2,6-difluoro-4-(2-methoxy-ethoxy)benzyl]-1H-indazol-3-yl}-N-(2-methylpyrimidin-4-yl)-6,7-dihydro-5H-pyrrolo[3,4-d]pyrimidin-4-amine, salt with hydrochloric acid], the IC50 stood at 77 nM. Still for that read-out and setting: to `Cc1cc(Nc2nc(-c3nn(Cc4c(F)cc(O)cc4F)c4ccccc34)nc3c2CCC3)ccn1` [Example 2-6-8, 3,5-difluoro-4-[(3-{4-[(2-methylpyridin-4-yl)amino]-6,7-dihydro-5H-cyclopenta[d]pyrimidin-2-yl}-1H-indazol-1-yl)methyl]phenol] belongs 46 nM. The molecule `CCOc1cc(F)c(Cn2nc(-c3nc4c(c(Nc5ccncc5)n3)CNCC4)c3ccccc32)c(F)c1` [Example 2-9-16, 2-[1-(4-ethoxy-2,6-difluorobenzyl)-1H-indazol-3-yl]-N-(pyridin-4-yl)-5,6,7,8-tetrahydro-pyrido[4,3-d]pyr-imidin-4-amine] gave an IC50 of 16 nM. On to `CCOc1cc(F)c(Cn2nc(-c3ncc(CC4OCCO4)c(Nc4ccncc4)n3)c3ccccc32)c(F)c1` [Example 2-2-15, 5-(1,3-dioxolan-2-ylmethyl)-2-[1-(4-ethoxy-2,6-difluorobenzyl)-1H-indazol-3-yl]-N-(pyridin-4-yl)pyrimidin-4-amine], for which 14 nM corresponded to half-maximal inhibition (IC50).
